Test results published in paper PMC3208124 (Journal of medicinal chemistry, 2011).

Key:
[1] = test system: Plasmodium falciparum K1 (drug resistant) strain; assay: Growth inhibition of P. falciparum K1 in erythrocytic co-culture; format: cell-based; conditions: K1, read-out: EC50 K1
[2] = test system: Plasmodium falciparum 3D7 (drug sensitive) strain; assay: Growth inhibition of P. falciparum 3D7 in erythrocytic co-culture; format: cell-based; conditions: 3D7, read-out: EC50 3D7

- EC50 [1]: ≤ 100 nM
- EC50 [2]: ≤ 100 nM
Compound: O=C(CCc1ccccc1)c1ccccc1OCC(O)CN1CCN(C(c2ccccc2)c2ccccc2)CC1 (centres unmarked) [Compound 6z]
